# Experimental data as given in ChEMBL document CHEMBL1201862, “PubChem BioAssay data set” (2004).
# Activity calls are given as the source filed them.
# Tests used:
# [1] = test system: Streptococcus sp. 'group A'; assay: growth inhibition of control SK(-) GAS strain, dose response, counter-screen for streptokinase expression inhibitor project, luminescence, kanamycin, BacTiterGlo, confirmation (AID 1900); type: functional, organism-based
# Aspartyl aminopeptidase = target: T1, Aspartyl aminopeptidase (Plasmodium falciparum 3D7, UniProt Q8I2J3)
# T1 sequence (Q8I2J3 whole entry): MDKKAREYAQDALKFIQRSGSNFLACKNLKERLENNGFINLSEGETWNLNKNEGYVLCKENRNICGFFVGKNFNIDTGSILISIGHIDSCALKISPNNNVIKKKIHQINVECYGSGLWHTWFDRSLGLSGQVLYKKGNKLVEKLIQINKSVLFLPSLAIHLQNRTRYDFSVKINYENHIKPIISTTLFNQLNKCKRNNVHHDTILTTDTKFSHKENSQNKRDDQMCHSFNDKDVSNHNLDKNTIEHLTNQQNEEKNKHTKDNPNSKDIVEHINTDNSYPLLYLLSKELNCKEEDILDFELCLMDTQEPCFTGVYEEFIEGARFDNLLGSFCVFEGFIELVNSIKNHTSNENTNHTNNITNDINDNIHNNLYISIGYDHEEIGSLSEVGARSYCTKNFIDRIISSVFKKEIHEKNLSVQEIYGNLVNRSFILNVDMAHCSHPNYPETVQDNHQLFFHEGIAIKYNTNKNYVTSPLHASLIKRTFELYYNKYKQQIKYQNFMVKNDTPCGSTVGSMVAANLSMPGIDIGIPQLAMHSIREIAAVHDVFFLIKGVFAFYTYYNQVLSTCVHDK
# Procathepsin L = Procathepsin L (Homo sapiens, UniProt P07711)
# Chain of Procathepsin L (P07711 whole entry): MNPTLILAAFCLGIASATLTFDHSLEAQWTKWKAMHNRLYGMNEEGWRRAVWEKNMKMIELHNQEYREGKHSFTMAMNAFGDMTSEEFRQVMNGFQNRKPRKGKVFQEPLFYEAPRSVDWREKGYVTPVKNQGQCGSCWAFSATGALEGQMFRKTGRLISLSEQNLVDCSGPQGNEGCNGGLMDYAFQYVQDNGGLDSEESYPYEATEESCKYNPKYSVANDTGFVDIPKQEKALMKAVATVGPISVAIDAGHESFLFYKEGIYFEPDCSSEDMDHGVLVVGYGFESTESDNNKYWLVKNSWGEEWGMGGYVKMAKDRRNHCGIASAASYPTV
# Streptokinase A = target: T2, Streptokinase A (Streptococcus pyogenes serotype M1, UniProt P10520); assay: S. pyogenes streptokinase expression inhibitors, potency, dose response, plasminogen activation absorbance, OD405 (AID 1914); type: functional, Streptococcus pyogenes M1 GAS;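 also: secreted streptokinase activity via plasminogen activation per viability signal from cell pellet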
# T2 sequence (P10520 whole entry): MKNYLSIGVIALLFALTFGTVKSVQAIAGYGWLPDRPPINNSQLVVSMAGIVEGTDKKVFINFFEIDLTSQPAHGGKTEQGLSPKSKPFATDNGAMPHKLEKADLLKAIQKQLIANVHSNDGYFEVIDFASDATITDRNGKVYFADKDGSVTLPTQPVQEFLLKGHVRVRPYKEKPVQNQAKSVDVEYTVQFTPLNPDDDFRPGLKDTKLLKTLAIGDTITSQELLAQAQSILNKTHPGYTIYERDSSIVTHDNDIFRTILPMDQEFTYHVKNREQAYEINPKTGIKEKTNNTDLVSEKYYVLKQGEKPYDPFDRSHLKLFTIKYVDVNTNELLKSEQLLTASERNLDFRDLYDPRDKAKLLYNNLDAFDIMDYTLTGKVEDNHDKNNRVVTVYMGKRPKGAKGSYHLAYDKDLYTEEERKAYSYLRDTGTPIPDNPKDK
# Large T antigen = Large T antigen (Simian virus 40, UniProt P03070); type: functional, Betapolyomavirus macacae;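 also: Confirmatory-stage PubChem screen for compounds that inhibit SV40 T antigen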
# Chain of Large T antigen (P03070 whole entry): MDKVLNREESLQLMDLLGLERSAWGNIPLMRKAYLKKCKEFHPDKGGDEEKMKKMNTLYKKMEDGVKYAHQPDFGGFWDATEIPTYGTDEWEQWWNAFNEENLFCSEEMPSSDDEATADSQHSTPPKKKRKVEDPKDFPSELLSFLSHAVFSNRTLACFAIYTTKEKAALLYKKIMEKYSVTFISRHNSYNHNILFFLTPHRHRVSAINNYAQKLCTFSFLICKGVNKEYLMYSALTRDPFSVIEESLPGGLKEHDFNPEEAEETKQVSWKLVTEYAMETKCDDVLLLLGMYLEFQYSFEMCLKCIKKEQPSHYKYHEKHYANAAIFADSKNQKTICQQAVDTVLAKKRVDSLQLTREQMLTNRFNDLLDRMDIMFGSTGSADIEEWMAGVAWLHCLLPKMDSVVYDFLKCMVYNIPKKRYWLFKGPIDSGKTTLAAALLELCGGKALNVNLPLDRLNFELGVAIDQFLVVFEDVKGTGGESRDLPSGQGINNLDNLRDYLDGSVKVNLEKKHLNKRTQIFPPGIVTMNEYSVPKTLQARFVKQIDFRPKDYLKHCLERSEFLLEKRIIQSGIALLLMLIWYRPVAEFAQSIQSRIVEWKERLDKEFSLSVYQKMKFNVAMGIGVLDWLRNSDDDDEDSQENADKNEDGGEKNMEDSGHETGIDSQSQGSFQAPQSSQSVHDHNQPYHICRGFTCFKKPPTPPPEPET
# [2] = inhibitors of intracellular T. cruzi replication, confirmation, NIH3T3 host cells, beta-gal luminescence (AID 2044); type: functional, cell-based;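 also: intracellular parasites grown in NIH/3T3 mouse fibroblasts as host cells; luminescent beta-galactosidase reporter signal from transgenic T. cruzi replicating inside host cells; inhibitors lower the luminescence signal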
# [3] = cytotoxicity toward NIH3T3 fibroblasts, dose response, counter-screen, cell-based, ATP luminescence, mouse fibroblasts (AID 2010); type: functional;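 also: cells exposed to compound for about 90 hours before reading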
# Streptococcus = assay: Group A Streptococcus viability loss, dose response, counter-screen for streptokinase expression inhibitor project, luminescence, BacTiterGlo (AID 1915); type: functional, organism-based;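 also: potency for reduction of bacterial viability or growth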
# [4] = target: DNA dC->dU-editing enzyme APOBEC-3G (Homo sapiens, UniProt Q9HC16); assay: Dose Response confirmation of small molecule APOBEC3G DNA Deaminase Inhibitors via a fluorescence-based single-stranded DNA deaminase assay. [Related pubchem assays (depositor defined):AID493012, AID493028]; type: functional
# Chain of DNA dC->dU-editing enzyme APOBEC-3G (Q9HC16 whole entry, the tested form may be a part): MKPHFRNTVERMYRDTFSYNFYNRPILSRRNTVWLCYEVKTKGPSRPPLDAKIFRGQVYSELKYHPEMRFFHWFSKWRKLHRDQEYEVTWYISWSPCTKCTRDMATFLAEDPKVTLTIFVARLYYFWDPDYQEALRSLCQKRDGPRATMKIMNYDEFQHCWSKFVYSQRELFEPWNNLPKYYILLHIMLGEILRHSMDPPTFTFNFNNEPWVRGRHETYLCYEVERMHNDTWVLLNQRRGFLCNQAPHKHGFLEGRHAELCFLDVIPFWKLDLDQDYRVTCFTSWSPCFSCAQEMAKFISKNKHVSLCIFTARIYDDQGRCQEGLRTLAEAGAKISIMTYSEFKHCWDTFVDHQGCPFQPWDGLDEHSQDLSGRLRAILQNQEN
# Estrogen receptor = target: T3, Estrogen receptor (Homo sapiens, UniProt P03372); assay: potentiators of ERα–SRC-1 coactivator binding, dose response, biochemical, TR-FRET, ERα LBD (AID 737)
# T3 sequence (P03372 whole entry): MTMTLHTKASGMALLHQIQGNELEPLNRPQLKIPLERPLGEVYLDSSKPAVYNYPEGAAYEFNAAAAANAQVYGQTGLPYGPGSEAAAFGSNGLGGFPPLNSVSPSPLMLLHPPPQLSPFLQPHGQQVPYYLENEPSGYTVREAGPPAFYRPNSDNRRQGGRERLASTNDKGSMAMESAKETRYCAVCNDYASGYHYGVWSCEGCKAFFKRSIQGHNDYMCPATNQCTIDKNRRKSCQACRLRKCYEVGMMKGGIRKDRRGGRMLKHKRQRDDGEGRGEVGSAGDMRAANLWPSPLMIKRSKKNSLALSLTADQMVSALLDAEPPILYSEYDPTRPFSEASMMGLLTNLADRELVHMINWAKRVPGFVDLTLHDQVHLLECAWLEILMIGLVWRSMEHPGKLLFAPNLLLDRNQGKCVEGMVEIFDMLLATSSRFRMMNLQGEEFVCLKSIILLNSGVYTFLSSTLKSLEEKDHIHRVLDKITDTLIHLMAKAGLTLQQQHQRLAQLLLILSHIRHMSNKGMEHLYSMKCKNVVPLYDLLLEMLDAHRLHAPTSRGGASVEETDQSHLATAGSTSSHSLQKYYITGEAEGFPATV
# Cytochrome P450 2C9 = Cytochrome P450 2C9 (Homo sapiens, UniProt P11712)
# [5] = cytotoxicity in HPDE-C7 cells, cell-based, fluorescence, HTS (AID 430); type: functional; details: Homo sapiens
# [6] = cytotoxicity in KRAS-transformed pancreatic duct cells, primary screen, cell-based, fluorescence, HTS (AID 431); type: functional; details: Homo sapiens;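 also: cell line used: HPDE-C7K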
# H9c2 = assay: cells; type: functional, cell-based; details: Rattus norvegicus, H9c2, Myocardium;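 also: confirmatory concentration-response retest of ultra-high-throughput screening hits for modulation of myocardial damage; cell death induced by hydrogen peroxide oxidative stress; compound pretreatment for 60 min then peroxide exposure for 2 h; potency is for protecting the cells against peroxide damage rather than for killing them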
# [7] = inhibitors of Bluetongue virus cytopathic effect, confirmation, arbovirus, BSR cells (AID 1250); type: functional;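 also: protection from viral cytopathic effect measured as cell viability by ATP luminescence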
# [8] = target: Induced myeloid leukemia cell differentiation protein Mcl-1 (Homo sapiens, UniProt Q07820); type: functional
# Fatty acid synthase [9] = target: T4, Fatty acid synthase (Homo sapiens, UniProt P49327); assay: FAS thioesterase domain inhibitors, dose response, biochemical, endpoint fluorescence intensity, uHTS hits (AID 624327); type: functional;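 also: fluorescence from hydrolysis of an O-methyl fluorescein acyl ester substrate by the enzyme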
# T4 sequence (P49327 whole entry, the tested form may be a part): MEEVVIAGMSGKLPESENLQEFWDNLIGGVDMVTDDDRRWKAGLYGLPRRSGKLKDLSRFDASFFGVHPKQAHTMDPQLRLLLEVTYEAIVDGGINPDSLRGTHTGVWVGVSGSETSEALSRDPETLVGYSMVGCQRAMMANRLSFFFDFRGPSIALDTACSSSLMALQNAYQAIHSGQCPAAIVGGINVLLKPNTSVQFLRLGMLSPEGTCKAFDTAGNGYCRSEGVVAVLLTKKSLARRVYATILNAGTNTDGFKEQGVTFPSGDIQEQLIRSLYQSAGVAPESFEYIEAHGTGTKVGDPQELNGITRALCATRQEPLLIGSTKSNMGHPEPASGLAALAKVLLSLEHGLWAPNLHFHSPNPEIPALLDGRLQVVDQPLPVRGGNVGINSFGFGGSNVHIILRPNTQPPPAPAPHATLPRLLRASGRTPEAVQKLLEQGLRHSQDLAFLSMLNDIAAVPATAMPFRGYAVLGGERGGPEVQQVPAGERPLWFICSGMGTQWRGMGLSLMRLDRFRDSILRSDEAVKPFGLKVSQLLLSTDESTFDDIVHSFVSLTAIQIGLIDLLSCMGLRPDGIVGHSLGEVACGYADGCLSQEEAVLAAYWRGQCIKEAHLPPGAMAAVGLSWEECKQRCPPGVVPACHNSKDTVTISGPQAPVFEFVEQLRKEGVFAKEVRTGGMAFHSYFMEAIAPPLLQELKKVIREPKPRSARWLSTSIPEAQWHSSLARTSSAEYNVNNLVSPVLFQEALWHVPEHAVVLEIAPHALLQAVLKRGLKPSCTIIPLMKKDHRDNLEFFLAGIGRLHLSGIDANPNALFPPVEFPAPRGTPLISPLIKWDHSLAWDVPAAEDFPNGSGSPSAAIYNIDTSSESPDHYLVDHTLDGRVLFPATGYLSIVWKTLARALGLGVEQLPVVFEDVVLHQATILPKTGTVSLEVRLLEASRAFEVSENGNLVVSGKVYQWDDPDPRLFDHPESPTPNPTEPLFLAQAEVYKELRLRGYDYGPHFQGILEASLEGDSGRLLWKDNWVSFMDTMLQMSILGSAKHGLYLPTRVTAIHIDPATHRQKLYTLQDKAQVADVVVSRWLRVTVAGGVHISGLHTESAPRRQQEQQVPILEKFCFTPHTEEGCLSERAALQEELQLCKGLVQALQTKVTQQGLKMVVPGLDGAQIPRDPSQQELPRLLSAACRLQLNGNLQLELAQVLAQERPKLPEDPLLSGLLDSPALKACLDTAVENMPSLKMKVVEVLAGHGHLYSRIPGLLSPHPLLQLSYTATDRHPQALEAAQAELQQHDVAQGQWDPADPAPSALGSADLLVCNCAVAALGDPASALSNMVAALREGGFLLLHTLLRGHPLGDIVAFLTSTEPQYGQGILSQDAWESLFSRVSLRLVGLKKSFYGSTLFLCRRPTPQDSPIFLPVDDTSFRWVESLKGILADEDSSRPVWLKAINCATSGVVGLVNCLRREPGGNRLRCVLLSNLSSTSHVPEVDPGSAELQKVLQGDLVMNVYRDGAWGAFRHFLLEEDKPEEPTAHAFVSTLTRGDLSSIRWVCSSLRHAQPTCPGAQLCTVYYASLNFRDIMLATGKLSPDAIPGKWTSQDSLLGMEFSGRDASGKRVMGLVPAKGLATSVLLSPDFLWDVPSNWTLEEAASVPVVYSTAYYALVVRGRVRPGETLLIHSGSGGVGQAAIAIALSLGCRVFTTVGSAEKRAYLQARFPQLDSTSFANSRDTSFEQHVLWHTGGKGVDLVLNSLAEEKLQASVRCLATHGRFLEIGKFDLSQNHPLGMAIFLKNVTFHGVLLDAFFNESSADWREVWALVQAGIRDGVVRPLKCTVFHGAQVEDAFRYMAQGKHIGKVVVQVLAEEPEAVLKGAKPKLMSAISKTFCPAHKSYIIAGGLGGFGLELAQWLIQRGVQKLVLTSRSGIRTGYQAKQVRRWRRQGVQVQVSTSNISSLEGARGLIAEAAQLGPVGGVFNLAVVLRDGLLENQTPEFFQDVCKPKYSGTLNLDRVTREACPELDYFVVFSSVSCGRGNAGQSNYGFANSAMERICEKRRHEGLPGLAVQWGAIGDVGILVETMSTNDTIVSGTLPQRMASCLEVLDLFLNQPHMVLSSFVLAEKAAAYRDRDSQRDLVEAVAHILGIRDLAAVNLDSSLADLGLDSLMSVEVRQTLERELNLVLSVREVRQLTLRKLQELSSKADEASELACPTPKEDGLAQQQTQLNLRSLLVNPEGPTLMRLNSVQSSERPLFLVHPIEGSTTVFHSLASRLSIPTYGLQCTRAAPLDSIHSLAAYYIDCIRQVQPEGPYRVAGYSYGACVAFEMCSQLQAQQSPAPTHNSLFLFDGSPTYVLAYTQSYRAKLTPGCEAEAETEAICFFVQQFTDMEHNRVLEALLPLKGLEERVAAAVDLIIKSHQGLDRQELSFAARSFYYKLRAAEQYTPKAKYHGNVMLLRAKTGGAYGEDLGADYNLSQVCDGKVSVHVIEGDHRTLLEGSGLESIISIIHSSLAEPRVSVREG
# Fatty acid synthase [10] = target: T4, Fatty acid synthase; assay: FAS thioesterase domain inhibitors, dose response, biochemical, kinetic fluorescence intensity (AID 624326); type: functional;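 also: rate of fluorescence rise from hydrolysis of a fluorogenic O-methyl fluorescein ester substrate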
# [11] = target: Heat shock protein HSP 90-alpha (Homo sapiens, UniProt P07900); type: functional, organism-based
# HEK293 [12] = assay: NOD1 signaling inhibitors, primary screen, cell-based, luminescence, uHTS (AID 1578); type: functional; details: Homo sapiens
# HEK293 [13] = assay: cells; type: functional, cell-based; details: Homo sapiens
# HEK293 [14] = assay: cells; type: functional, cell-based; details: Homo sapiens; remark: listed apart in the source
# [15] = target: Nucleotide-binding oligomerization domain-containing protein 2 (Homo sapiens, UniProt Q9HC29); assay: NOD2 signaling inhibitors, cell-based, luminescence, uHTS, HEK293 (AID 1566); type: functional
# HEK293 [16] = assay: NOD2 signaling inhibitors in MDP-stimulated cells, cell-based, uHTS, luminescence (AID 2001); type: functional; details: Homo sapiens
# HEK293 [17] = assay: cells; type: functional, cell-based; details: Homo sapiens; remark: listed apart in the source
# [18] = microbe, parasite or virus in culture; type: functional; details: Mycobacterium tuberculosis
# Prothrombin = Prothrombin (Homo sapiens, UniProt P00734); assay: Thrombin 1536 HTS Dose Response Confirmation. [Related pubchem assays: 1046 (Thrombin 1536 HTS; hits were confirmed in this assay)]; type: functional
# Coagulation factor XII = target: T5, Coagulation factor XII (Homo sapiens, UniProt P00748); type: functional;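 also: activated factor XIIa alpha cleaving a fluorogenic AMC peptide substrate; inhibitor potency from loss of enzyme activity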
# T5 sequence (P00748 whole entry): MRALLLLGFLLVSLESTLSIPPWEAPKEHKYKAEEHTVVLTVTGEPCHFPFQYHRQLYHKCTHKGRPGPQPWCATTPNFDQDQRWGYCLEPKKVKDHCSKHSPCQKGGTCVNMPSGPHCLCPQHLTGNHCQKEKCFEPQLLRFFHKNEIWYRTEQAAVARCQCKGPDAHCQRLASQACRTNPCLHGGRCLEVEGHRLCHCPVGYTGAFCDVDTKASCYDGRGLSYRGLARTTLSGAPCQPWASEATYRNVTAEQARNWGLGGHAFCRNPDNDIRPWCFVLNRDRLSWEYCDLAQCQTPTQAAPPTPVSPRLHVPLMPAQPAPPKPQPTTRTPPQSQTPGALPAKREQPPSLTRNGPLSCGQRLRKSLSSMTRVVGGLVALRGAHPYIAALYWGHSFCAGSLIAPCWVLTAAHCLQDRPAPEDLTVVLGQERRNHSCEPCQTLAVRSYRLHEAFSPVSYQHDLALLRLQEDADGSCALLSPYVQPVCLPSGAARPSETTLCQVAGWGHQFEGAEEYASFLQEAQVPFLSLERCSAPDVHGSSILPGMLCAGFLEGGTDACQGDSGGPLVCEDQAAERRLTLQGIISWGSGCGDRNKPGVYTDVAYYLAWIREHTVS
# Vero = Vero cell cytotoxicity, cytotoxicity control for flavivirus capping enzyme inhibitors (AID 588742); type: functional; details: Chlorocebus sabaeus
# Genome polyprotein = Genome polyprotein (dengue virus type 2, UniProt P29990); assay: Dengue-2 NS5 methyltransferase inhibitors, primary screen, biochemical, confirmation dose response (AID 588689); type: functional
# Chain of Genome polyprotein (P29990 2492-3391 limits assumed): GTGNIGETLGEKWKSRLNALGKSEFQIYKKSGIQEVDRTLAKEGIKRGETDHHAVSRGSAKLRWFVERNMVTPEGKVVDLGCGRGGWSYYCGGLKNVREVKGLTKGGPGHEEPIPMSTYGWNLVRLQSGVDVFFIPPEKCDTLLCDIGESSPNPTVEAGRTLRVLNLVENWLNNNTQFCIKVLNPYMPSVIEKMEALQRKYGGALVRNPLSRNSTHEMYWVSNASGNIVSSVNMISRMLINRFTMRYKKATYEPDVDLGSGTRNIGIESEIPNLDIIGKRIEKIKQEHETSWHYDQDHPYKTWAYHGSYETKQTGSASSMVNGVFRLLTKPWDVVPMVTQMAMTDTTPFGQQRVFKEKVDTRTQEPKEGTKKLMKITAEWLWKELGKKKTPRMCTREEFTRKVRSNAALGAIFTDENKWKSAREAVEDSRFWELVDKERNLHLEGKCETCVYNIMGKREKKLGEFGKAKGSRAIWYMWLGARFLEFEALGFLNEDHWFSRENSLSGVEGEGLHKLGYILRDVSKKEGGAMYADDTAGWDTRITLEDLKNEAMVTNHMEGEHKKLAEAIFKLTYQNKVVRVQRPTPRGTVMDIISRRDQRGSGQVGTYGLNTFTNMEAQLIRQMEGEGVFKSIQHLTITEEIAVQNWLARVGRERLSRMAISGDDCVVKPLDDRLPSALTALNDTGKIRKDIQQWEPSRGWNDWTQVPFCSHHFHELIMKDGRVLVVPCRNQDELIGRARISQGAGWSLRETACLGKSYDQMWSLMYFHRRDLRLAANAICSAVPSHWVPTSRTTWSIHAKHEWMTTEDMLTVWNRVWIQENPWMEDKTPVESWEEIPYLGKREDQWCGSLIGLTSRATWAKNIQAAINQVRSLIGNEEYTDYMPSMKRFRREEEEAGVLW
# [19] = target: T6, Probable nicotinate-nucleotide adenylyltransferase (Staphylococcus aureus (strain N315), UniProt P65502); type: functional, Staphylococcus aureus subsp. aureus N315;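 as to IC50 Mean: confirmatory dose-response retesting of NadD inhibitor hits first found in an ultra-high-throughput screen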
# T6 sequence (P65502 whole entry): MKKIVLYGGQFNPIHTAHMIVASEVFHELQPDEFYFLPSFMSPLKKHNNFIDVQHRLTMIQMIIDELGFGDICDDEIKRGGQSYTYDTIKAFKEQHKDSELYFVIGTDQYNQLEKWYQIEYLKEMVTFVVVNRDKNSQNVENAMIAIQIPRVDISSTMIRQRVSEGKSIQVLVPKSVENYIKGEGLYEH
# [20] = target: T6, Probable nicotinate-nucleotide adenylyltransferase; type: functional, Staphylococcus aureus subsp. aureus N315; details: read-out: IC50_Mean
# Cytochrome P450 2D6 = Cytochrome P450 2D6 (Homo sapiens, UniProt P10635);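 also: CYP2D6 member of a cytochrome P450 panel assay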
# [21] = target: T7, Serine/threonine-protein phosphatase (Homo sapiens, UniProt Q9BPW0); assay: Counterscreen for inhibitors of PP1: fluorescence-based biochemical high throughput dose response assay to identify inhibitors of Protein Phosphatase 5 (PP5). [Related pubchem assays: 2034 (Summary (PP5 inhibitors)), 1987 (PP5 inhibitors in singlate), 2235 (PP1 inhibitors in singlate)]
# T7 sequence (Q9BPW0 whole entry): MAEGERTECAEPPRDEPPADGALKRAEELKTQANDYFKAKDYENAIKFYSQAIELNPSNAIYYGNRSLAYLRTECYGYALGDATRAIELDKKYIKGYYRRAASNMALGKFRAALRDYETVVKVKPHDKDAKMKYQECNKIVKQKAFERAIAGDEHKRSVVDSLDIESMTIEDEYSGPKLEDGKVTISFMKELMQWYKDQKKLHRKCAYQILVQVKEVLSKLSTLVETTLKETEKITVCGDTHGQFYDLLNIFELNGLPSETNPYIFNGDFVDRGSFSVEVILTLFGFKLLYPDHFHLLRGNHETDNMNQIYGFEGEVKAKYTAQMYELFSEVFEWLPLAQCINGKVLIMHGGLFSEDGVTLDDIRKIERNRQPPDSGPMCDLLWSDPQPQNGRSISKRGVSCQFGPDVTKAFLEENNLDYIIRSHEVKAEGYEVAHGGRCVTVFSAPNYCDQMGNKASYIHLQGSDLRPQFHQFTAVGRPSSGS
compound,measurement,setting,value
O=c1c2c([N+](=O)[O-])cc([N+](=O)[O-])cc2sn1Cc1ccccc1,EC50,[1],4.35 µM (active)
same,IC50,Aspartyl aminopeptidase,> 101 nM (active)
same,IC50,Procathepsin L,> 59.6 µM (not active)
same,EC50,Streptokinase A,> 150 µM (not active)
same,IC50,Large T antigen,13.1 µM (active)
same,EC50,[2],1.77 µM (active)
same,EC50,[3],16.9 µM (active)
same,EC50,Streptococcus,16.1 µM (active)
same,IC50,[4],4.16 µM (active)
Cc1ccc(S(=O)(=O)NCCn2c(C)cc3ccccc32)cc1,EC50,Estrogen receptor,28.7 µM (active)
same,AC50,Cytochrome P450 2C9,3.55 µM (inconclusive)
O=C(Oc1cccc2cccnc12)c1cccs1,EC50,[5],3.46 µM (active)
same,EC50,[6],4.38 µM (active)
Cc1ccc(-c2nn3c(C)nnc3s2)cc1NC(=O)COc1ccc(Cl)cc1,EC50,Estrogen receptor,17.2 µM (active)
same,IC50,H9c2,> 79 µM (inactive)
COc1ccc(C(=O)O)cc1NC(=S)NC(=O)c1ccc(-c2ccc(Cl)cc2)o1,EC50,[1],5.27 µM (active)
same,EC50,Streptokinase A,23.8 µM (inconclusive)
same,IC50,[7],27.1 µM (active)
same,IC50,[8],7.13 µM (not active)
same,EC50,Streptococcus,> 150 µM (not active)
same,IC50,Fatty acid synthase [9],7.33 µM (active)
same,IC50,Fatty acid synthase [10],7.5 µM (active)
O=C(NC1(C(F)(F)F)Oc2ccccc2O1)N1CCC2(CC1)OCCO2,IC50,Aspartyl aminopeptidase,2780 nM (active)
same,IC50,Procathepsin L,> 59.6 µM (not active)
Cc1cc2n(n1)C(c1c[nH]c3ccccc13)Nc1ccccc1-2 (stereo not drawn),EC50,[1],8.99 µM (active)
same,EC50,Streptokinase A,18.1 µM (active)
same,EC50,[5],12 µM (active)
same,EC50,[6],12.9 µM (active)
same,EC50,Streptococcus,> 150 µM (not active)
same,AC50,[11],6.08 µM (active)
Cc1ccc(-c2csc(N3CCN(CCCn4c(-c5ccncc5)nc5ccccc54)CC3)n2)cc1,EC50,HEK293 [12],6.11 µM (active)
same,IC50,HEK293 [13],4.3 µM (active)
same,IC50,HEK293 [14],11.4 µM (active)
same,EC50,[15],12.3 µM (active)
same,IC50,HEK293 [16],4.62 µM (active)
same,IC50,HEK293 [17],> 20 µM (inactive)
same,CC50,[18],> 40 µM (active)
COc1cc(/C=N/n2c(-c3ccc4c(c3)NC(=O)CO4)cs/c2=N\c2cccc(C)c2)ccc1O,CC50,[18],25 µM (active)
NC(=O)/C(=N\OC(=O)c1ccco1)c1nc(-c2ccc(Br)cc2)cs1,IC50,Prothrombin,925 nM (active)
same,IC50,[7],34.3 µM (active)
same,IC50,Coagulation factor XII,21 µM (active)
same,CC50,Vero,> 40 µM (active)
same,IC50,Genome polyprotein,40.8 µM (active)
same,IC50,[19],7.32 µM (active)
same,IC50,[20],29.2 µM (active)
same,AC50,Cytochrome P450 2D6,25.1 µM (inconclusive)
O=C1OC(=O)C2C1[C@@H]1CC[C@H]2O1 (stereo partly drawn),IC50,[21],3.06 µM (active)
O=C1OC(=O)C2C3CCC(O3)C12 (stereo not drawn),IC50,[21],2.57 µM (active)
